Molecules are shown by their SMILES.

One assay has as its system HBV rcDNA in HepDE19 cells. Briefly: HepDE19 assay with bDNA quantitation of HBV rcDNA. Format: cell-based, hepatitis B virus (HBV). As to conditions: Hepatitis B virus, HepDE19, 168 h, inhibition of rcDNA formation in HepDE19 cells (HepG2 derived), Tet-free medium, 7 day incubation, Quantigene 2.0 bDNA readout, top concentration 25 μM; read-out: DE-19bDNA EC50. An outline of the steps:
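HepDE19 cells (HepG2-derived, Tet-regulated HBV) switched to Tet-free medium, then treated 7 days at 37 °C with compound, 8-point titration from 25 μM, 0.5% DMSO. rcDNA quantified by bDNA with HBV probes; EC50/EC90 via 4-parameter fit. Viability (CC50) by CellTiter-Glo ATP on 5,000 cells/well after 4 days.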
As a reminder, the EC50 is the concentration that produces a half-maximal response. Regarding `CN(C(=O)N1Cc2ccc(Cl)cc2C1)[C@@H]1COCc2[nH]c(=O)c3cc(F)c(F)cc3c21` [Compound 219, (S)-5-Chloro-N-(8,9-difluoro-6-oxo-1,4,5,6-tetrahydro-2H-pyrano[3,4-c]isoquinolin-1-yl)-N-methylisoindoline-2-carboxamide], the concentration giving a half-maximal response (EC50) was 5.9 µM.

For the molecule `CC(C)CN(C(=O)Nc1ccc(F)c(Cl)c1)C1CCCc2[nH]c(=O)cc(C(F)(F)F)c21` (centres unmarked) [Compound 1, 3-(3-Chloro-4-fluorophenyl)-1-isobutyl-1-(2-oxo-4-(trifluoromethyl)-1,2,5,6,7,8-hexahydroquinolin-5-yl)urea], the EC50 came out at 0.52 µM.

The same assay, now with this note: inhibition of rcDNA formation in HepDE19 cells (HepG2 derived), Tet-free medium, 7 day incubation, Quantigene 2.0 bDNA readout, top concentration 25 μM; read-out: DE-19bDNA EC50.
As for `CN(C(=O)Nc1ccc(F)c(C#N)c1)C1CN(CCO)Cc2[nH]c(=O)c3cc(F)c(F)cc3c21` (single isomer, unassigned) [Compound 182, 3-(3-Cyano-4-fluorophenyl)-1-(8,9-difluoro-3-(2-hydroxyethyl)-6-oxo-1,2,3,4,5,6-hexahydrobenzo[c][1,7]naphthyridin-1-yl)-1-methylurea], the EC50 was 4.9 µM.

As for `CC(=O)N1Cc2[nH]c(=O)c3cc(F)c(F)cc3c2C(N(C)C(=O)Nc2ccc(F)c(Cl)c2)C1` (single isomer, unassigned) [Compound 159, 1-(3-Acetyl-8,9-difluoro-6-oxo-1,2,3,4,5,6-hexahydrobenzo[c][1,7]naphthyridin-1-yl)-3-(3-chloro-4-fluorophenyl)-1-methylurea], the EC50 was 12 µM.

On to `CN(C(=O)Nc1ccc(F)c(C#N)c1)C1CNCc2[nH]c(=O)c3cc(F)ccc3c21` (single isomer, unassigned) [Compound 161, 3-(3-Cyano-4-fluorophenyl)-1-(8-fluoro-6-oxo-1,2,3,4,5,6-hexahydrobenzo[c][1,7]naphthyridin-1-yl)-1-methylurea], for which the EC50 was determined as 17 µM.

Take `CN(C(=O)Nc1ccc(F)c(F)c1)C1CCCc2[nH]c(=O)c3c(c21)CCCC3` (single isomer, unassigned) [Compound 49, 3-(3,4-Difluorophenyl)-1-methyl-1-(6-oxo-1,2,3,4,5,6,7,8,9,10-decahydrophenanthridin-1-yl)urea]: the EC50 came out at 0.16 µM.

With `CN(C(=O)Nc1ccc(F)c(Cl)c1)C1CCCc2[nH]c(=O)c3c(c21)CCCC3` (single isomer, unassigned) [Compound 46, 3-(3-Chloro-4-fluorophenyl)-1-methyl-1-(6-oxo-1,2,3,4,5,6,7,8,9,10-decahydrophenanthridin-1-yl)urea], the half-maximal effective concentration (EC50) amounted to 1.2 µM.

`NS(=O)(=O)CCN(C(=O)Nc1ccc(F)c(Cl)c1)C1COCc2[nH]c(=O)c3cc(F)c(F)cc3c21` (single isomer, unassigned) [Compound 136, 2-(3-(3-Chloro-4-fluorophenyl)-1-(8,9-difluoro-6-oxo-1,4,5,6-tetrahydro-2H-pyrano[3,4-c]isoquinolin-1-yl)ureido)ethane-1-sulfonamide]: the EC50 came out at 2.9 µM.

Turning to `CN(C(=O)Nc1ccc(F)c(Cl)c1)C1CS(=O)(=O)Cc2[nH]c(=O)c3cc(F)ccc3c21` (single isomer, unassigned) [Compound 198, 3-(3-Chloro-4-fluorophenyl)-1-(8-fluoro-3,3-dioxido-6-oxo-1,4,5,6-tetrahydro-2H-thiopyrano[3,4-c]isoquinolin-1-yl)-1-methylurea], the EC50 was found to be 3.7 µM.

For the molecule `CN(C(=O)Nc1ccc(F)c(Cl)c1)C1CN(CCO)Cc2[nH]c(=O)c3cc(F)c(F)cc3c21` (single isomer, unassigned) [Compound 179, 3-(3-Chloro-4-fluorophenyl)-1-(8,9-difluoro-3-(2-hydroxyethyl)-6-oxo-1,2,3,4,5,6-hexahydrobenzo[c][1,7]naphthyridin-1-yl)-1-methylurea], the EC50 was 7.3 µM.

With `CN(C(=O)Nc1cc(Cl)c(F)c(Cl)c1)C1COCc2[nH]c(=O)c3cc(F)ccc3c21` (single isomer, unassigned) [Compound 98, 3-(3,5-Dichloro-4-fluorophenyl)-1-(8-fluoro-6-oxo-1,4,5,6-tetrahydro-2H-pyrano[3,4-c]isoquinolin-1-yl)-1-methylurea], the EC50 is 0.03 µM.

The values above are taken from patent US20230108906A1, “SUBSTITUTED BICYCLIC AND TRICYCLIC UREAS AND AMIDES, ANALOGUES THEREOF, AND METHODS USING SAME” (Arbutus Biopharma Corporation, priority 2019, published 2023).
